Drawing on ChEMBL document CHEMBL3044576, “Synthesis of promising antimicrobial agents: a novel series of N-(4-(2,6-dichloroquinolin-3-yl)-6-(aryl)pyrimidin-2-yl)-2-morpholinoacetamides” (2013), this text covers MIC for seven molecules.

Each structure is given as a SMILES string. ≈ marks a conversion by molar mass, not a printed value.

One experiment concerns Staphylococcus aureus. The experiment can be described thus: Antibacterial activity against Staphylococcus aureus MTCC 96 after 24 to 48 hr by serial broth dilution method. The experiment is classed as functional.
Conditions: not given
In general terms: Broth dilution looks for growth in wells or tubes with falling amounts of substance.
Broadly, the MIC is the smallest concentration in the dilution series that meets the test's criterion for growth inhibition. The low end stands for greater potency, the high end for weaker potency. `O=C(CN1CCOCC1)Nc1nc(-c2ccccc2F)cc(-c2cc3cc(Cl)ccc3nc2Cl)n1`: it took 50 µg/mL (≈ 97.6 µM) to inhibit growth (MIC).

`O=C(CN1CCOCC1)Nc1nc(-c2ccccc2[N+](=O)[O-])cc(-c2cc3cc(Cl)ccc3nc2Cl)n1` displayed a minimum inhibitory concentration (MIC) of 500 µg/mL (≈ 927 µM).

`O=C(CN1CCOCC1)Nc1nc(-c2ccc(Cl)cc2)cc(-c2cc3cc(Cl)ccc3nc2Cl)n1` gave an MIC of 250 µg/mL (≈ 473 µM).

As to `O=C(CN1CCOCC1)Nc1nc(-c2ccccc2O)cc(-c2cc3cc(Cl)ccc3nc2Cl)n1`, inhibition of growth (MIC) required 500 µg/mL (≈ 980 µM).

Consider `O=C(CN1CCOCC1)Nc1nc(-c2cccc([N+](=O)[O-])c2)cc(-c2cc3cc(Cl)ccc3nc2Cl)n1`, for which the MIC turned out to be 50 µg/mL (≈ 92.7 µM).

`O=C(CN1CCOCC1)Nc1nc(-c2ccc(O)cc2)cc(-c2cc3cc(Cl)ccc3nc2Cl)n1` displayed an MIC of 500 µg/mL (≈ 980 µM).

For the next experiment, the system named is Escherichia coli. Description: Antibacterial activity against Escherichia coli MTCC 443 after 24 to 48 hr by serial broth dilution method. The experiment is classed as functional.
Conditions: not given
`O=C(CN1CCOCC1)Nc1nc(-c2ccccc2F)cc(-c2cc3cc(Cl)ccc3nc2Cl)n1` had an MIC of 50 µg/mL (≈ 97.6 µM).

In the case of `O=C(CN1CCOCC1)Nc1nc(-c2ccccc2[N+](=O)[O-])cc(-c2cc3cc(Cl)ccc3nc2Cl)n1`, it took 12.5 µg/mL (≈ 23.2 µM) to inhibit growth (MIC).

As for `O=C(CN1CCOCC1)Nc1nc(-c2ccc(Cl)cc2)cc(-c2cc3cc(Cl)ccc3nc2Cl)n1`, it took 100 µg/mL (≈ 189 µM) to inhibit growth (MIC).

Turning to `O=C(CN1CCOCC1)Nc1nc(-c2ccccc2O)cc(-c2cc3cc(Cl)ccc3nc2Cl)n1`, the MIC was determined as 500 µg/mL (≈ 980 µM).

`O=C(CN1CCOCC1)Nc1nc(-c2cccc([N+](=O)[O-])c2)cc(-c2cc3cc(Cl)ccc3nc2Cl)n1` registered an MIC of 100 µg/mL (≈ 185 µM).

`O=C(CN1CCOCC1)Nc1nc(-c2ccc(O)cc2)cc(-c2cc3cc(Cl)ccc3nc2Cl)n1` registered an MIC of 500 µg/mL (≈ 980 µM).

In a further experiment the test system is Aspergillus clavatus. Description: Antifungal activity against Aspergillus clavatus MTCC 1323 after 72 hr by serial broth dilution method. It counts as functional. The conditions noted are these: MTCC 1323, 72 h.
As for `O=C(CN1CCOCC1)Nc1nc(-c2ccccc2F)cc(-c2cc3cc(Cl)ccc3nc2Cl)n1`, inhibition of growth (MIC) required 50 µg/mL (≈ 97.6 µM).

With `O=C(CN1CCOCC1)Nc1nc(-c2ccccc2[N+](=O)[O-])cc(-c2cc3cc(Cl)ccc3nc2Cl)n1`, it took 50 µg/mL (≈ 92.7 µM) to inhibit growth (MIC).

The molecule `O=C(CN1CCOCC1)Nc1nc(-c2ccc(Cl)cc2)cc(-c2cc3cc(Cl)ccc3nc2Cl)n1` yielded an MIC of 100 µg/mL (≈ 189 µM).

Consider `COC1=CC(=O)C[C@@H](C)[C@]12Oc1c(Cl)c(OC)cc(OC)c1C2=O` [GRISEOFULVIN], for which the MIC turned out to be 100 µg/mL (≈ 283 µM).

Turning to `O=C(CN1CCOCC1)Nc1nc(-c2ccccc2O)cc(-c2cc3cc(Cl)ccc3nc2Cl)n1`, the MIC amounted to 500 µg/mL (≈ 980 µM).

For the molecule `O=C(CN1CCOCC1)Nc1nc(-c2cccc([N+](=O)[O-])c2)cc(-c2cc3cc(Cl)ccc3nc2Cl)n1`, the MIC came to 100 µg/mL (≈ 185 µM).

`O=C(CN1CCOCC1)Nc1nc(-c2ccc(O)cc2)cc(-c2cc3cc(Cl)ccc3nc2Cl)n1`: the MIC amounted to 1000 µg/mL (≈ 1960 µM).

In the next experiment the test system is Streptococcus pyogenes. Description: Antibacterial activity against Streptococcus pyogenes MTCC 442 after 24 to 48 hr by serial broth dilution method.
Conditions: not given
It counts as functional.
`O=C(CN1CCOCC1)Nc1nc(-c2ccccc2F)cc(-c2cc3cc(Cl)ccc3nc2Cl)n1` returned an MIC of 100 µg/mL (≈ 195 µM).

The molecule `O=C(CN1CCOCC1)Nc1nc(-c2ccccc2[N+](=O)[O-])cc(-c2cc3cc(Cl)ccc3nc2Cl)n1` returned an MIC of 12.5 µg/mL (≈ 23.2 µM).

In turn, `O=C(CN1CCOCC1)Nc1nc(-c2ccc(Cl)cc2)cc(-c2cc3cc(Cl)ccc3nc2Cl)n1` had an MIC of 50 µg/mL (≈ 94.5 µM).

For the molecule `O=C(CN1CCOCC1)Nc1nc(-c2ccccc2O)cc(-c2cc3cc(Cl)ccc3nc2Cl)n1`, 500 µg/mL (≈ 980 µM) was the least that counted as inhibitory (MIC).

Regarding `O=C(CN1CCOCC1)Nc1nc(-c2cccc([N+](=O)[O-])c2)cc(-c2cc3cc(Cl)ccc3nc2Cl)n1`, the MIC was found to be 100 µg/mL (≈ 185 µM).

Regarding `O=C(CN1CCOCC1)Nc1nc(-c2ccc(O)cc2)cc(-c2cc3cc(Cl)ccc3nc2Cl)n1`, it took 1000 µg/mL (≈ 1960 µM) to inhibit growth (MIC).

The next experiment has as its system Candida albicans. The experiment can be described thus: Antifungal activity against Candida albicans MTCC 227 after 72 hr by serial broth dilution method. The experiment is classed as functional. The settings on record: MTCC 227, 72 h.
In the case of `O=C(CN1CCOCC1)Nc1nc(-c2ccccc2F)cc(-c2cc3cc(Cl)ccc3nc2Cl)n1`, it took 250 µg/mL (≈ 488 µM) to inhibit growth (MIC).

For the molecule `O=C(CN1CCOCC1)Nc1nc(-c2ccccc2[N+](=O)[O-])cc(-c2cc3cc(Cl)ccc3nc2Cl)n1`, the MIC was found to be 100 µg/mL (≈ 185 µM).

Take `O=C(CN1CCOCC1)Nc1nc(-c2ccc(Cl)cc2)cc(-c2cc3cc(Cl)ccc3nc2Cl)n1`: the MIC was 100 µg/mL (≈ 189 µM).

`COC1=CC(=O)C[C@@H](C)[C@]12Oc1c(Cl)c(OC)cc(OC)c1C2=O` [GRISEOFULVIN] returned an MIC of 500 µg/mL (≈ 1420 µM).

Take `O=C(CN1CCOCC1)Nc1nc(-c2ccccc2O)cc(-c2cc3cc(Cl)ccc3nc2Cl)n1`: the MIC amounted to 1000 µg/mL (≈ 1960 µM).

`O=C(CN1CCOCC1)Nc1nc(-c2cccc([N+](=O)[O-])c2)cc(-c2cc3cc(Cl)ccc3nc2Cl)n1` returned an MIC of 500 µg/mL (≈ 927 µM).

On to `O=C(CN1CCOCC1)Nc1nc(-c2ccc(O)cc2)cc(-c2cc3cc(Cl)ccc3nc2Cl)n1`, for which it took 1000 µg/mL (≈ 1960 µM) to inhibit growth (MIC).

The test system of another experiment is Pseudomonas aeruginosa. The experiment can be described thus: Antibacterial activity against Pseudomonas aeruginosa MTCC 1688 after 24 to 48 hr by serial broth dilution method.
Conditions: not given
It counts as functional.
Regarding `O=C(CN1CCOCC1)Nc1nc(-c2ccccc2F)cc(-c2cc3cc(Cl)ccc3nc2Cl)n1`, the MIC worked out at 50 µg/mL (≈ 97.6 µM).

As for `O=C(CN1CCOCC1)Nc1nc(-c2ccccc2[N+](=O)[O-])cc(-c2cc3cc(Cl)ccc3nc2Cl)n1`, the MIC was 50 µg/mL (≈ 92.7 µM).

In turn, `O=C(CN1CCOCC1)Nc1nc(-c2ccc(Cl)cc2)cc(-c2cc3cc(Cl)ccc3nc2Cl)n1` registered an MIC of 25 µg/mL (≈ 47.3 µM).

For `O=C(CN1CCOCC1)Nc1nc(-c2ccccc2O)cc(-c2cc3cc(Cl)ccc3nc2Cl)n1`, it took 250 µg/mL (≈ 490 µM) to inhibit growth (MIC).

As to `O=C(CN1CCOCC1)Nc1nc(-c2cccc([N+](=O)[O-])c2)cc(-c2cc3cc(Cl)ccc3nc2Cl)n1`, the minimal inhibitory concentration (MIC) was 100 µg/mL (≈ 185 µM).

For the molecule `O=C(CN1CCOCC1)Nc1nc(-c2ccc(O)cc2)cc(-c2cc3cc(Cl)ccc3nc2Cl)n1`, the MIC is 1000 µg/mL (≈ 1960 µM).

The test system of another experiment is Aspergillus niger. Description: Antifungal activity against Aspergillus niger MTCC 282 after 72 hr by serial broth dilution method. It counts as functional. The settings on record: MTCC 282, 72 h.
With `O=C(CN1CCOCC1)Nc1nc(-c2ccccc2F)cc(-c2cc3cc(Cl)ccc3nc2Cl)n1`, the minimal inhibitory concentration (MIC) stood at 25 µg/mL (≈ 48.8 µM).

With `O=C(CN1CCOCC1)Nc1nc(-c2ccccc2[N+](=O)[O-])cc(-c2cc3cc(Cl)ccc3nc2Cl)n1`, the MIC was 25 µg/mL (≈ 46.3 µM).

`O=C(CN1CCOCC1)Nc1nc(-c2ccc(Cl)cc2)cc(-c2cc3cc(Cl)ccc3nc2Cl)n1` showed an MIC of 100 µg/mL (≈ 189 µM).

In turn, `COC1=CC(=O)C[C@@H](C)[C@]12Oc1c(Cl)c(OC)cc(OC)c1C2=O` [GRISEOFULVIN] displayed an MIC of 100 µg/mL (≈ 283 µM).

The molecule `O=C(CN1CCOCC1)Nc1nc(-c2ccccc2O)cc(-c2cc3cc(Cl)ccc3nc2Cl)n1` showed a minimal inhibitory concentration (MIC) of 500 µg/mL (≈ 980 µM).

As for `O=C(CN1CCOCC1)Nc1nc(-c2cccc([N+](=O)[O-])c2)cc(-c2cc3cc(Cl)ccc3nc2Cl)n1`, the MIC came to 50 µg/mL (≈ 92.7 µM).

For the molecule `O=C(CN1CCOCC1)Nc1nc(-c2ccc(O)cc2)cc(-c2cc3cc(Cl)ccc3nc2Cl)n1`, the MIC was 1000 µg/mL (≈ 1960 µM).
